Source: patent EP1126023A1, “METHOD FOR INDUCING CELLULAR IMMUNITY AND CELLS WITH INDUCED CELLULAR IMMUNITY” (MITSUBISHI CHEMICAL CORPORATION, priority 1998, dated 2000)

Tested on: CD8-positive HLA-A2402-restrictive CTL clones specific for the ErbB2 p63-71 peptide
Assay: Stimulating activity of treated dendritic cells on proliferation of CTL clone
Type: cell-based, human
Details: HLA-A2402 dendritic cells treated at protein concentration of 100 µg/ml for 3 hours or peptide-pulsed; compared to the non-treated dendritic cells; Fig. 3
Experimental: The dendritic cells, prepared from healthy human peripheral blood monocytes having HLA-A2402 as described above, were cultured with the CHP-ErbB2 suspension, the ErbB2 protein alone, the CHP-CAB suspension, or the CAB protein alone each at a protein concentration of 100 µ g/ml for 3 hours. The cells were washed and then further cultured for 15 hours.
By using these dendritic cells and the ErbB2 p63-71 peptide-pulsed dendritic cells derived from the same individual as stimulating cells, their abilities of stimulation were examined on the aforementioned CD8-positive HLA-A2402-restrictive CTL clones specific for the ErbB2 p63-71 peptide.

p63-71 peptide: peptide having the 63-71 amino acid sequence of HER2, positive control (TYLPTNASL)
stimulation and proliferation of the CTL clone: significantly stimulate the CTL clone and induce proliferation
